Measurements from ChEMBL document CHEMBL1143633, “Synthesis and cytotoxic evaluation of combretafurazans” (J Med Chem, 2005).

Each compound was assayed on SH-SY5Y (assay: Cytotoxicity against SH-SY5Y human neuroblastoma cell line was determined).
Format: functional, cell-based
For `COc1ccc(-c2nonc2-c2cc(OC)c(OC)c(OC)c2)cc1[N+](=O)[O-]`, the IC50 was 72.5 nM. `COc1ccc(C(=O)C(=O)c2cc(OC)c(OC)c(OC)c2)cc1O` showed an IC50 of 524 nM. For `COc1ccc(-c2nonc2-c2cc(OC)c(OC)c(OC)c2)cc1O`, the IC50 was 1.4 nM. `COc1ccc(-c2nonc2-c2cc(OC)c(OC)c(OC)c2)cc1N` showed an IC50 of 1.6 nM. `COc1ccc(-c2nonc2-c2cc(OC)c(O)c(OC)c2)cc1O` gave an IC50 of 17.5 nM. Work on `COc1ccc(-c2nonc2-c2cc(OC)c(OC)c(OC)c2)cc1` yielded an IC50 of 8.9 nM. Work on `COc1ccc(-c2nonc2-c2cc(OC)c(O)c(OC)c2)cc1` yielded an IC50 of 196 nM. `COc1ccc(C(=N/O)/C(=N\O)c2cc(OC)c(OC)c(OC)c2)cc1O` showed an IC50 of 254 nM. `COc1ccc(/C=C\c2cc(OC)c(OC)c(OC)c2)cc1O` [COMBRETASTATIN A4] showed an IC50 of 5.8 nM.
